The test system of series [1] is MOG35-55 EAE in C57BL/6J mice. The experiment in a line: MOG35-55 EAE prevention (immunization) model. The format is in vivo. As to conditions: Mus musculus. As to the method:
Mice: Eight-weeks-old female C57BL/6J mice (15-20 g, Harlan laboratories, Rehovot, Israel) were used in all experiments. Animal maintenance and experimental protocols were performed in accordance with the Israeli Council for Animal Care guidelines and approved by Sheba IRB Animal Care Committee. Mice were kept in an SPF environment, maintained on a 12-h light/dark cycle at a constant environmental temperature with free access to food and water in their home cages.
Induction of MOG35-55 EAE (Prevention Model): EAE (Experimental Autoimmune Encephalomyelitis) was induced in 8 week old female C57BL/6J mice (15-20 g, Harlan laboratories, Rehovot, Israel) by immunization with an emulsion containing 300 μg of purified myelin oligodendrocyte glycoprotein (MOG) peptide ([…], corresponding to residues 35-55; obtained from (Difco, Detroit, Mich.) in saline and an equal volume of complete Freund's adjuvant containing 5 mg H37RA (Difco, Detroit, Mich.). 0.2 ml of the inoculum was injected subcutaneously. In addition, 300 ng of Bordetella pertusis toxin (Sigma) in 0.2 ml saline was injected intraperitoneally at the day of induction and two days later.
Oral gavages with the tested compound, at various concentrations ranging from 3 mg/kg-30 mg/kg in PBS or 50 mM NaH2PO4 (PH 4.5), or with vehicle only, were initiated at day of immunization. Mice were monitored daily for clinical signs of EAE, scored as: 1, flaccid tail; 2, forelimb weakness and poor righting ability; 3, hind limb paralysis; 4, quadriplegia; 5, moribund. Animal reaching a score of 4 were scarified using CO2.
Treatment was stopped once 30% of the vehicle-treated animals scored 1 on the EAE score. […]
The therapeutic index (LD50/ED50), which is also referred to herein as Safety Margin (SM), was then determined based on the EAE model. ED50 is the minimum effective dose observed for 50% of the tested animals.

The test system of series [2] is POL-I. As to conditions: human cancer cell lines; cited from earlier work.
Series [3] can be described thus: Solubility in mQ water. The format is physicochemical. The following applies: 50 mg in 0.5 mL mQ water, room temperature. As to the method: The solubility of Compounds 1 and 10 was determined by dissolving 50 mg of the tested compound in 0.5 mL of mQ water, at room temperature.
In series [4] the test system is Mouse splenocytes. The experiment in a line: XTT cell viability assay, PHA-stimulated splenocytes. The format is cell-based. The following applies: 72 hours; for IC50: Splenocyte; for IC50 / XTT IC50: mouse splenocytes, 25-400 nM. The method, then:
Cell viability was assessed by the 2,3 bis [2-Methoxy-4-nitro-5-sulfophenyl]-2H-tetrazolium-5-carboxanilide (XTT) assay (Biological Industries, Kibbutz Beit Hemeek, Israel), which measures the reduction of a tetrazolium component (XTT) into soluble formazan product by the mitochondria of viable cells. The intensity of the dye obtained is proportional to the number of metabolic active cells. On the day of measurement, cells were washed and XTT was added according to the manufacturer's instructions. Plates were incubated at 37° C. for 2-5 hours. The absorbance was read at 450 nm.
Mouse splenocytes were removed and spleenocytes were plated (250,000 cell/well) in DMEM+10% FCS+P/S+Q and […] Phytohaemaglutinin (PHA), in the presence of elevated concentrations (25-400 nM) of RAM-0 (Compound 1), RAM-1 (Compound 4), RAM-2 (Compound 2) or RAM-3 (Compound 3) for 72 hours. Cells cultured without PHA served as control. Control mice at zero are mice splenocytes with PHA stimulation.
Following incubation, cell viability was determined by XTT assay, as described above.
A general note: Tetrazolium assays rely on reduction of a dye to a coloured formazan, in cell work by metabolically active cells.

The subject of series [5] is Experimental Autoimmune Encephalomyelitis (EAE). As to conditions: cited from earlier work.
Series [6] concerns C57BL/6J mice. The experiment in a line: Toxicity (LD50, survival) in the EAE model, continuous administration. The format is in vivo. The following applies: EAE prevention model. The method, then: (§1) The animals were evaluated for signs of acute toxicity and survival during the entire administration period in the EAE model.
(§2) The therapeutic index (LD50/ED50), which is also referred to herein as Safety Margin (SM), was then determined based on the EAE model.

Assay in series [7]: as above
It counts as in vivo. The following applies: C57BL/6J, mouse, in vivo, oral; EAE prevention model, continuous administration. The method, then:
as §1, §2

As to `Cc1cnc(CNC(=O)c2c(=O)c3ccc(N4CCCN(C)CC4)nc3n3c2sc2ccccc23)cn1` [Compound 1, 2-(4-methyl-1,4-diazepan-1-yl)-N-((5-methylpyrazin-2-yl)methyl)-5-oxo-5H-benzo[4,5]thiazolo[3,2-a][1,8]naphthyridine-6-carboxamide, reference compound], the ED50 (commonly the midpoint of the dose-response relation) in series [1] is 12.5 mg/kg. Also, the POL-I activity result in series [2] is reported as “inhibited POL-I activity”. Further, the solubility entry in series [3] is “dissolved only in a pH 4.5 buffered solution after vigorous stirring for 30 minutes”. For the same compound, inhibition in series [4] was half-maximal at 0.05 µM (IC50). Besides, in series [5] (administered at clinical disease onset), the EAE disease severity result was “reduce the disease severity”. For the same compound, the EAE prevention result in series [5] (administered at disease induction) is reported as “prevent animal Experimental Autoimmune Encephalomyelitis (EAE)”. In addition, the “SM (therapeutic index LD50/ED50)” value in series [6] stood at 2. Further, in series [7], the LD50 – broadly, the dose at which mortality reaches 50% – is 25 mg/kg.
As for `Cc1cnc(CNC(=O)c2c(Cl)c3ccc(N4CCCN(C)CC4)nc3[n+]3c2sc2ccccc23)cn1` [Compound 2, 5-chloro-2-(4-methyl-1,4-diazepan-1-yl)-6-(((5-methylpyrazin-2-yl)methyl)carbamoyl)benzo[4,5]thiazolo[3,2-a][1,8]naphthyridin-12-ium], in series [4], the “suppression of splenocyte proliferation compared to Compound 1 (XTT)” value is “no substantial effect” and the “XTT IC50” value was “No Effect”.
In the case of `Cc1cnc(CNC(=O)c2c(=S)c3ccc(N4CCCN(C)CC4)nc3n3c2sc2ccccc23)cn1` [Compound 3, 2-(4-methyl-1,4-diazepan-1-yl)-N-((5-methylpyrazin-2-yl)methyl)-5-thioxo-5H-benzo[4,5]thiazolo[3,2-a][1,8]naphthyridine-6-carboxamide], in series [4], the “effectiveness in suppressing proliferation compared to Compound 1” value was determined as 6 folds and it took 0.02 µM to reach half-maximal inhibition (IC50).
In the case of `Cc1cnc(CNC(=O)c2c(=N)c3ccc(N4CCCN(C)CC4)nc3n3c2sc2ccccc23)cn1` [Compound 4, 5-imino-2-(4-methyl-1,4-diazepan-1-yl)-N-((5-methylpyrazin-2-yl)methyl)-5H-benzo[4,5]thiazolo[3,2-a][1,8]naphthyridine-6-carboxamide], in series [4], the “suppression of splenocyte proliferation compared to Compound 1 (XTT)” value is listed as “dose response curve similar to RAM-0 (Compound 1)” and the IC50 (as a rule, the midpoint of a concentration-inhibition curve) worked out at 0.05 µM.
`C/N=c1/c(C(=O)NCc2cnc(C)cn2)c2sc3ccccc3n2c2nc(N3CCCN(C)CC3)ccc12` [Compound 5, (E/Z)-2-(4-methyl-1,4-diazepan-1-yl)-5-(methylimino)-N-((5-methylpyrazin-2-yl)methyl)-5H-benzo[4,5]thiazolo[3,2-a][1,8]naphthyridine-6-carboxamide] displayed an IC50 in series [4] of 0.05 µM.
On to `CCC/N=c1/c(C(=O)NCc2cnc(C)cn2)c2sc3ccccc3n2c2nc(N3CCCN(C)CC3)ccc12` [Compound 6], for which half-maximal inhibition in series [4] (IC50) required 0.05 µM.
In the case of `Cc1cnc(CNC(=O)c2/c(=N/C(C)C)c3ccc(N4CCCN(C)CC4)nc3n3c2sc2ccccc23)cn1` [Compound 7], the IC50 in series [4] amounted to 0.05 µM.
Still for that read-out and setting: next, `CO/N=c1/c(C(=O)NCc2cnc(C)cn2)c2sc3ccccc3n2c2nc(N3CCCN(C)CC3)ccc12` [Compound 8]: 0.05 µM.
As to `Cc1cnc(CNc2nc(=O)nc3c4ccc(N5CCCN(C)CC5)nc4n4c(sc5ccccc54)c2-3)cn1` [Compound 9], the “XTT IC50” value in series [4] is “No Effect”.

Source of the values: patent publication US10022382B2, “RNA polymerase I inhibitors and uses thereof” (Tel HaShomer Medical Research Infrastructure and Services …, priority 2013, dated 2018).
